Assay results taken from patent US10456550B2, “Device and method for controlling respiration during sleep” (Yeda Research and Development Co. Ltd., priority 2010, dated 2019).

How the values were obtained:
healthy subjects [1] = experiment: Respiration (inhale/exhale volume) after odorant presentation during sleep; type: in vivo, human; details: for inhale/exhale volume ratio following odor presentation in comparison to baseline: nasal respiration, across all sleep stages; for difference in respiration volume ratio across sleep stages: repeated measures ANOVA between sleep stages
Text: (§1) Odorants were delivered with a computer-controlled air dilution olfactometer built according to principals described in Sobel et al. 1997; Johnson and Sobel 2007 which are incorporated herein by reference. Room air (3 Liter per minute) was mixed with the odorized air (3 liter per minute), resulting in odor concentration of 50%. The odorant line culminated at a small nasal mask that was subserved by a vacuum line pulling at the same rate of airflow. This provided an odor environment at the nose where odorant onset and offset occurred within 2 and 260 ms, respectively, with no visual, auditory, tactile, humidity, or thermal cues as to the alteration. In other words, the odorant stimulus was not a puff of air but rather a block of odorant embedded within an airflow that was constant for the duration of the study. The olfactometer itself was located in a room adjacent to the sleep room, and only the airflow tubing crossed into the sleep room via a wave guide within the stainless steel-coated wall. This provided additional separation from any possible visual or auditory stimulation associated with the olfactometer (e.g., LEDs on its front panel, etc.).
Overall respiration was computed as a reflection of changes in thoracic respiration and abdominal respiration circumference measured using 2 piezoelectric respiratory belt transducers (1132 Pneumotrace II, UFI).
Nasal and Oral respiration was measured using separate pneumotachometers (high-sensitivity flowmeter model #4719, Hans Rudolph, Inc.) that were attached in line with the vent ports of the mask. The pneumotachometer differential pressure was measured and converted to a voltage signal using a spirometer (ML141, ADInstruments) that delivered the voltage to the instrumentation amplifier.
The effects of odorants on 4 breath parameters were tested: breath mean airflow velocity, breath maximum airflow velocity, breath volume, and breath duration. Breath volume was calculated by the trapezoidal Reimann sum method (Johnson et al. 2006). Breaths were aligned in time by setting the point at which the breath passed from the expiratory phase to the inspiratory phase as time 0.
The experimenters observed the real-time polysomnography reading, and 20 min after they determined that the subject had entered stage 2 sleep, they initiated the experimental protocol that from this point on was computer controlled. Every 9, 12, or 15 min (randomized), the olfactometer generated a 5-, 10-, or 20-s (randomized) odor stimulus. […] Upon spontaneous morning wake-up, subjects again rated the intensity and pleasantness of the odorant and were then debriefed, paid, and released.
Averages of respiration measurements for inhalation, exhalation, and inhalation/exhalation ratio in the 30 breaths before odor onset were compared with the averages of respiration measurements for inhalation, exhalation, and inhalation/exhalation ratio for each one of 6 breaths after odor onset across sleep stages per odorant and for all odorants together. This analysis was corrected for the 6 comparisons using a Bonferroni correction. Respiratory measurements were compared between sleep stages per odorant in a repeated measures ANOVA.
The second alternative is that, although oral respiration typically reflects only; 4% of overall respiration in sleep (Fitzpatrick et al. 2003), the odorant may have changed the balance between nasal and oral breathing such that oral inspiration increased. Under this scenario, the increase in nasal exhalation reflected an increase in oral inspiration rather than the exhalation of air stored in the lungs. The above data could not discriminate between these alternatives because it relied on accurate measurement of nasal respiration alone. An additional control group of 10 subjects were studied using the odorant vetiver oil that in addition to the nasal mask were fitted with an oral mask in order to accurately measure oral and nasal respiration simultaneously.

healthy subjects [2] = experiment: Arousal and wake-up frequency after odorant presentation during sleep (polysomnography); type: in vivo, human; details: odor vs clean-air baseline, across sleep stages; 5-20 s stimuli, 50% odor concentration
Text: as §1
Physiological measurements were recorded using a Power-Lab 16SP Monitoring System (ADInstruments) running off a Macintosh G4 computer using a sampling rate of 1000 Hz and a 50-Hz notch filter to remove electrical artifacts. For all measures dependent on electrodes, the scalp surface was cleaned with mild abrasive gel (Nuprep gel, Aurora) in order to assist in lowering impedance at the electrode site. For pasted to electrodes on the rest of the body, the skin surface was also first cleaned with alcohol. The following measures were recorded:
Electroencephalogram (EEG) was obtained through 2 circular electrodes ([…]) that were located at positions C3 and C4 according to the 10-20 system and were referenced to electrodes on the opposite mastoids (A2 and A1, respectively). Signals were amplified using a preamplifier (Octal Bio Amp ML138, ADInstruments).
Electromyogram (EMG) was obtained through 2 circular Ag/AgCl conductive adhesive electrodes (0.9 cm diameter). The electrodes were located bilaterally adjacent to the submentalis muscles. Signals were amplified using a preamplifier (Octal Bio Amp ML138, ADInstruments). […]
Blood oxygination (SpO2) was measured with an oxymeter (MLT321 SpO2 Finger Clip Sensor, ADInstruments) embedded within a finger clip placed on the left index finger.
Sleep stages were scored off-line according to the R and K criteria (Rechtschaffen and Kales 1968). […]
The experimenters observed the real-time polysomnography reading, and 20 min after they determined that the subject had entered stage 2 sleep, they initiated the experimental protocol that from this point on was computer controlled. […]

8-day-old rats = details: cited from earlier work
humans = details: selective trigeminal irritant during nocturnal sleep; cited from earlier work
[3] = first breath after dispersion, worded 'may' in the description

With `[NH4+].[NH4+].[S-2]` [ammonium sulfide] as the compound, how does the “inhale/exhale volume ratio following odor presentation in comparison to baseline” value (healthy subjects [1]) read?
The value was “significantly smaller”.

What about the “difference in respiration volume ratio across sleep stages” value (healthy subjects [1]) of the same compound?
Its value is “no difference”.

And the “effect of odor on arousal frequency” value (healthy subjects [2])?
Its value is “no effect of odor”.

And the “effect of odor on wake-up frequency” value (healthy subjects [2])?
Its value is “no effect of odor on wake-up”.

Which results are given for `CSSC` [DMDS, dimethyl disulfide]?
sniffing during sleep (8-day-old rats; 8-day-old rats presented with odorant): sniffing, including polypnea, occurred while the rats were asleep; arousal responses (8-day-old rats; sleeping 8-day-old rats): did not evoke reliable arousal responses

Which arousal frequency (humans) does the source give for `O=C=O` [CO2] here?
The arousal frequency was “concentration-dependent increase in arousal frequency”.

With `COc1cc(C=O)ccc1O` [vanillin] as the compound, how does the “decrease of inhalation volume” value (healthy subjects [1]; [3]) read?
Its value is “about 23%”.

And the “increase of exhalation volume” value (healthy subjects [1]; [3])?
Its value is “about 6%”.

And the “reduction of nasal inhalation/exhalation volume ratio” value (healthy subjects [1]; first breath after odor onset, worded 'may' in the description)?
The value was “about 27%”.

What about the “inhale/exhale volume ratio following odor presentation in comparison to baseline” value (healthy subjects [1]) of the same compound?
The value was “significantly smaller”.

And the “difference in respiration volume ratio across sleep stages” value (healthy subjects [1])?
The value was “no difference”.

And the “reduction of nasal inhalation/exhalation volume ratio” value (healthy subjects [1]; sixth breath after odor onset, worded 'may' in the description)?
The value was “about 5%”.

What about the “effect of odor on arousal frequency” value (healthy subjects [2]) of the same compound?
Its value is “no effect of odor on arousal”.

What about the “effect of odor on wake-up frequency” value (healthy subjects [2]) of the same compound?
Its value is “no effect of odor on wake-up”.
